{"source": "patent US12570647B2", "about": "(Saint Louis University, priority 2021, dated 2026)", "key": {"S. aureus ATCC25923": {"system": "S. aureus ATCC25923", "assay": "S. aureus MIC80 determination, broth microdilution (CLSI) in CAMHB", "format": "cell-based", "conditions": "S. aureus ATCC 25923", "experimental": "(§1) S. Aureus MIC80 determinations in S. aureus ATCC25923 or in multidrug-resistant strains AR215, AR217 and AR255. MIC80's were determined by the broth microdilution method recommended by the Clinical and Laboratory Standards Institute (CLSI) in Cation-adjusted Mueller-Hinton broth (CAMHB). (Cao et al., 2018). In the preliminary screening, three compound concentrations were used: 5.8, 20.4, and 71.4 μM; for quantitative MIC80 measurements, a 1.5-fold dilution series of the compounds was prepared in CAMHB. Overnight bacterial culture was added to the diluted compounds in a 96-well plate after adjusting the bacterial concentration to achieve a 5×10^5 CFU/mL final concentration. After 16-24 h incubation at 35±2° C., the plates were read at 600 nm in a microplate reader. The MIC80 was defined as the concentration of an antibacterial agent that inhibited bacteria growth ≥80% compared to vehicle-treated control cultures. All values were determined at least twice independently, and the average number is reported."}, "[1]": {"system": "S. aureus AR215 (MRSA, multidrug-resistant strain)", "assay": "S. aureus MIC80 determination, broth microdilution (CLSI) in CAMHB", "format": "cell-based", "conditions": "Table 2", "experimental": "as §1\n(§2) AR215, AR217, and AR222 were obtained from the Centers for Disease Control and Prevention (CDC). AR215 and AR217 are cefoxitin-screen positive (resistant to cefoxitin) and resistant to oxacillin, which are MRSA strains. AR215 is also resistant to clindamycin, erythromycin, levofloxacin, and penicillin. AR217 is also resistant to levofloxacin, penicillin, and Trimethoprim-sulfamethoxazole. AR222 is only resistant to penicillin."}, "[2]": {"system": "S. aureus AR217 (MRSA, multidrug-resistant strain)", "assay": "S. aureus MIC80 determination, broth microdilution (CLSI) in CAMHB", "format": "cell-based", "conditions": "Table 2", "experimental": "as §1, §2"}, "S. aureus AR222 [3]": {"system": "S. aureus AR222", "assay": "S. aureus MIC80 determination, broth microdilution (CLSI) in CAMHB", "format": "cell-based", "conditions": "Table 2", "experimental": "as §1, §2"}, "S. aureus ATCC 25923": {"system": "S. aureus ATCC 25923", "parameters": "key: R: resistance; S: sensitive; I: intermediate", "conditions": "Table 2; cited from earlier work"}, "S. aureus AR215": {"system": "S. aureus AR215", "parameters": "key to Antibiotic susceptibility (R/S/I): R: resistance; S: sensitive; I: intermediate", "conditions": "Table 2; S. aureus AR215 (CDC strain); cited from earlier work"}, "S. aureus AR217": {"system": "S. aureus AR217", "parameters": "key to Antibiotic susceptibility (R/S/I): R: resistance; S: sensitive; I: intermediate", "conditions": "Table 2; S. aureus AR217 (CDC strain); cited from earlier work"}, "S. aureus AR222 [4]": {"system": "S. aureus AR222", "parameters": "key to Antibiotic susceptibility (R/S/I): R: resistance; S: sensitive; I: intermediate", "conditions": "Table 2; S. aureus AR222 (CDC strain); cited from earlier work"}, "[5]": {"conditions": "Staphylococcus aureus, ATCC25923, Table 1, growth inhibition ≥80% vs vehicle, 16-24 h, read-out: ATCC 25923 MIC80"}, "[6]": {"conditions": "Staphylococcus aureus, ATCC25923, Table 2, read-out: MIC80"}}, "note": "Like-named read-outs stand apart in the source and are kept apart here.", "data": [{"compound": "Cc1ccoc1C(=O)N(CCCn1ccnc1)c1nc2c(C)cc(Cl)cc2s1", "note": "[Example 15, N-(3-(1H-imidazol-1-yl)propyl)-N-(6-chloro-4-methylbenzo[d]thiazol-2-yl)-3-methylfuran-2-carboxamide]", "values": [{"measurement": "MIC80", "setting": "S. aureus ATCC25923; [5]", "value": "< 1.7", "unit": "µM"}, {"measurement": "MIC80", "setting": "S. aureus ATCC25923; [6]", "value": 1.8, "unit": "µM"}, {"measurement": "MIC80", "setting": "[1]; Staphylococcus aureus, MRSA", "value": 13.3, "unit": "µM"}, {"measurement": "MIC80", "setting": "[2]; Staphylococcus aureus, MRSA", "value": 4, "unit": "µM"}, {"measurement": "MIC80", "setting": "S. aureus AR222 [3]; Staphylococcus aureus", "value": 2.6, "unit": "µM"}]}, {"compound": "CC(=O)NC[C@H]1CN(c2ccc(N3CCOCC3)c(F)c2)C(=O)O1", "note": "[LZD, Linezolid]", "values": [{"measurement": "Antibiotic susceptibility (R/S/I)", "setting": "S. aureus ATCC 25923", "value": "S"}, {"measurement": "Antibiotic susceptibility (R/S/I)", "setting": "S. aureus AR215", "value": "S"}, {"measurement": "Antibiotic susceptibility (R/S/I)", "setting": "S. aureus AR217", "value": "S"}, {"measurement": "Antibiotic susceptibility (R/S/I)", "setting": "S. aureus AR222 [4]", "value": "S"}]}, {"compound": "Gentamicin", "values": [{"measurement": "Antibiotic susceptibility (R/S/I)", "setting": "S. aureus ATCC 25923", "value": "S"}, {"measurement": "Antibiotic susceptibility (R/S/I)", "setting": "S. aureus AR215", "value": "S"}, {"measurement": "Antibiotic susceptibility (R/S/I)", "setting": "S. aureus AR217", "value": "S"}, {"measurement": "Antibiotic susceptibility (R/S/I)", "setting": "S. aureus AR222 [4]", "value": "S"}]}, {"compound": "CN[C@H](CC(C)C)C(=O)N[C@H]1C(=O)N[C@@H](CC(N)=O)C(=O)N[C@H]2C(=O)N[C@H]3C(=O)N[C@H](C(=O)N[C@H](C(=O)O)c4cc(O)cc(O)c4-c4cc3ccc4O)[C@H](O)c3ccc(c(Cl)c3)Oc3cc2cc(c3O[C@@H]2O[C@H](CO)[C@@H](O)[C@H](O)[C@H]2O[C@H]2C[C@](C)(N)[C@H](O)[C@H](C)O2)Oc2ccc(cc2Cl)[C@H]1O", "note": "[VAN, Vancomycin]", "values": [{"measurement": "Antibiotic susceptibility (R/S/I)", "setting": "S. aureus ATCC 25923", "value": "S"}, {"measurement": "Antibiotic susceptibility (R/S/I)", "setting": "S. aureus AR215", "value": "I"}, {"measurement": "Antibiotic susceptibility (R/S/I)", "setting": "S. aureus AR217", "value": "I"}, {"measurement": "Antibiotic susceptibility (R/S/I)", "setting": "S. aureus AR222 [4]", "value": "I"}]}, {"compound": "clorofloxacin [reference compound]", "values": [{"measurement": "MIC80", "setting": "S. aureus ATCC25923; Table 2, read-out: MIC80", "value": 40.52, "unit": "µM"}, {"measurement": "MIC80", "setting": "[1]", "value": ".66 µM"}, {"measurement": "MIC80", "setting": "[2]", "value": ".30 µM"}, {"measurement": "MIC80", "setting": "S. aureus AR222 [3]", "value": 0.52, "unit": "µM"}]}, {"compound": "Cc1ccc(C(=O)N(CCCn2ccnc2)c2nc3c(C)cc(Cl)cc3s2)o1", "note": "[Example 4, N-(3-(1H-imidazol-1-yl)propyl)-N-(6-chloro-4-methylbenzo[d]thiazol-2-yl)-5-methylfuran-2-carboxamide]", "values": [{"measurement": "MIC80", "setting": "S. aureus ATCC25923; [5]", "value": 2.6, "unit": "µM"}, {"measurement": "MIC80", "setting": "S. aureus ATCC25923; [6]", "value": 0.78, "unit": "µM"}, {"measurement": "MIC80", "setting": "[1]; Staphylococcus aureus, MRSA", "value": 8.9, "unit": "µM"}, {"measurement": "MIC80", "setting": "[2]; Staphylococcus aureus, MRSA", "value": 5.9, "unit": "µM"}, {"measurement": "MIC80", "setting": "S. aureus AR222 [3]; Staphylococcus aureus", "value": 0.78, "unit": "µM"}]}]}
